Test results taken from ChEMBL document CHEMBL2029208 (Bioorg Med Chem, 2012).
Values after ≈ are worked out from the molar mass of the structure shown.

Tests used:
[1] = system: Mycobacterium tuberculosis; experiment: microbe, parasite or virus in culture; assay type: functional; conditions: H37Ra
[2] = molecular target: T1, Bifunctional epoxide hydrolase 2 (Homo sapiens, UniProt P34913);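 also: recombinant enzyme with CMNPC substrate, fluorescence readout of 6-methoxy-2-naphthaldehyde formed over a 10 min reaction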
T1 sequence (P34913 whole entry): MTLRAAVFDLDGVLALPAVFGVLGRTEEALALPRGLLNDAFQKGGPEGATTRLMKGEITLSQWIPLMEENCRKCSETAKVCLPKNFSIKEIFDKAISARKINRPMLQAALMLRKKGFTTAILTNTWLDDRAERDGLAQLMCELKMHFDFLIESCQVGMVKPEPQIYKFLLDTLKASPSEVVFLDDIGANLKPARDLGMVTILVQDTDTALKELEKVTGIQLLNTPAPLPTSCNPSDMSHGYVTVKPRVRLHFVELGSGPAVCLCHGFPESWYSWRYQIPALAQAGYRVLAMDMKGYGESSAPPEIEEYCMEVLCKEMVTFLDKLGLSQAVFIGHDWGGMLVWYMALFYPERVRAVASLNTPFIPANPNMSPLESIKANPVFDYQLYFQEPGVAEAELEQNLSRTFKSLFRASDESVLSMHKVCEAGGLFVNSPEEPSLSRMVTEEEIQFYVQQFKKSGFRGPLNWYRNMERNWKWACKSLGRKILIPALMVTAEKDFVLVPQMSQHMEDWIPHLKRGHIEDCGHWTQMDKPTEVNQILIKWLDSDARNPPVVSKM

Row | Structure (SMILES) | MIC [1] [mg/L] | IC50 [2] [nM]
1 | CCOCCOCCOc1cccc(NC(=O)NC23CC4CC(CC(C4)C2)C3)c1 | 2.52 (≈ 6.26 µM) | –
2 | O=C(Nc1ccc(OC(F)(F)F)cc1)Nc1ccc(OC(F)(F)F)cc1 | 4.75 (≈ 12.5 µM) | 9.6
3 | O=C(NC12CC3CC(CC(C3)C1)C2)N[C@H]1CC[C@@H](OC2CCCCC2)CC1 | > 75 | 1.6
4 | O=C(NC12CC3CC(CC(C3)C1)C2)N[C@H]1CC[C@H](OCC2CCCCC2)CC1 | > 78 | –
5 | O=C(Nc1ccc(C(=O)c2ccccc2)cc1)NC12CC3CC(CC(C3)C1)C2 | 1.8 (≈ 4.81 µM) | 1.6
6 | CN1CCN(CCCOc2ccc(NC(=O)NC34CC5CC(CC(C5)C3)C4)cc2)CC1 | 62 (≈ 145 µM) | –
7 | CC(C)c1ccc(NC(=O)NC2CCCCC2)cc1 | 3.25 (≈ 12.5 µM) | –
8 | O=C(NCCCc1ccccc1)NC12CC3CC(CC(C3)C1)C2 | 0.7 (≈ 2.24 µM) | 1
9 | CCOCCOCCOc1ccc(C(OC(=O)CCCNC(=O)NC23CC4CC(CC(C4)C2)C3)c2ccccc2)cc1 (centres undefined) | > 116 | 5.1
10 | CCc1ccc(OCCOCCOCCCCCNC(=O)NC23CC4CC(CC(C4)C2)C3)cc1 | 24 (≈ 50.8 µM) | –
11 | CC(C)(C)c1ccc(NC(=O)NC2CCCCC2)cc1 | 1.72 (≈ 6.27 µM) | 3.9
12 | COc1ccc(O[C@H]2CC[C@@H](NC(=O)NC34CC5CC(CC(C5)C3)C4)CC2)cc1 | > 80 | –
13 | O=C(NC1CCCC(C(=O)NN2CCOCC2)C1)NC12CC3CC(CC(C3)C1)C2 (centres undefined) | > 84 | 25.8
14 | CO[C@H]1CC[C@@H](NC(=O)NC23CC4CC(CC(C4)C2)C3)CC1 | > 61 | –
15 | O=C(Nc1ccc(OCCN2CCOCC2)c(Cl)c1)NC12CC3CC(CC(C3)C1)C2 | 27 (≈ 62.2 µM) | 0.6
16 | O=C(Nc1ccc(Cl)c(Cl)c1)Nc1ccc(Cl)c(Cl)c1 | 2.19 (≈ 6.26 µM) | 28.1
17 | COc1ccc(NC(=O)NC23CC4CC(CC(C4)C2)C3)cc1 | 1.88 (≈ 6.26 µM) | –
18 | CCC(=O)Oc1ccc(NC(=O)NC23CC4CC(CC(C4)C2)C3)cc1 | > 68 | –
19 | O=C(NCCCN1CCOCC1)NC12CC3CC(CC(C3)C1)C2 | > 64 | 610
20 | CCOC(=O)c1ccc(O[C@H]2CC[C@@H](NC(=O)NC34CC5CC(CC(C5)C3)C4)CC2)cc1 | 8.3 (≈ 18.8 µM) | 1.6
21 | O=C(Nc1cccc(OC(F)F)c1)NC12CC3CC(CC(C3)C1)C2 | 0.8 (≈ 2.38 µM) | 2.6
22 | O=C(Nc1cccc(C(=O)N2CCOCC2)c1)NC12CC3CC(CC(C3)C1)C2 | > 77 | –
23 | O=C(NN1CCOCC1)NC12CC3CC(CC(C3)C1)C2 | > 56 | 12800
24 | CSc1ccc(NC(=O)NC23CC4CC(CC(C4)C2)C3)cc1 | 1.5 (≈ 4.74 µM) | 1.6
25 | O=C(NC12CC3CC(CC(C3)C1)C2)N[C@H]1CC[C@H](OCc2ccccc2)CC1 | > 77 | –
26 | O=C(NC12CC3CC(CC(C3)C1)C2)N[C@H]1CC[C@H](Oc2ccc(F)cc2)CC1 | > 39 | –
27 | CCOCCOCC(OC(=O)CCCNC(=O)NC12CC3CC(CC(C3)C1)C2)c1ccccc1 (centres undefined) | 95 (≈ 201 µM) | 4.2

Row | Structure (SMILES) | MIC [1] [mg/L] | IC50 [2] [nM]
28 | O=C(NC12CC3CC(CC(C3)C1)C2)N[C@H]1CC[C@H](Oc2cccc(F)c2)CC1 | 14 (≈ 36.2 µM) | –
29 | O=C(Nc1ccc(OC2CCOC2=O)cc1)NC12CC3CC(CC(C3)C1)C2 (centres undefined) | > 37 | –
30 | CC(=O)Nc1ccc(NC(=O)NC23CC4CC(CC(C4)C2)C3)cc1 | 65 (≈ 199 µM) | –
31 | O=C(NCC#CCOc1ccc(F)cc1)NC12CC3CC(CC(C3)C1)C2 | 0.7 (≈ 1.96 µM) | –
32 | CCC(=O)Oc1cccc(NC(=O)NC23CC4CC(CC(C4)C2)C3)c1 | 17 (≈ 49.6 µM) | –
33 | O=C(Nc1ccc(OCCN2CCOCC2)cc1)NC12CC3CC(CC(C3)C1)C2 | > 30 | –
34 | CC(C)(C)OC(=O)N1CCN(CCCOc2ccc(NC(=O)NC34CC5CC(CC(C5)C3)C4)cc2)CC1 | 6.21 (≈ 12.1 µM) | –
35 | CC(=O)c1ccccc1NC(=O)NC12CC3CC(CC(C3)C1)C2 | > 3.1 | –
36 | O=C(NC12CC3CC(CC(C3)C1)C2)N[C@H]1CC[C@H](OCCCN2CCOCC2)CC1 | > 42 | –
37 | O=C(NC12CC3CC(CC(C3)C1)C2)N[C@H]1CC[C@H](O)CC1 | > 58 | –
38 | COC(=O)c1cc(NC(=O)NC23CC4CC(CC(C4)C2)C3)ccc1O | 1.1 (≈ 3.19 µM) | –
39 | CCCCOCCCCCNC(=O)NC12CC3CC(CC(C3)C1)C2 | 2.1 (≈ 6.24 µM) | –
40 | O=C(NC12CC3CC(CC(C3)C1)C2)N[C@H]1CC[C@H](OCc2ccc(Br)cc2)CC1 | > 92 | –
41 | C[C@H](NC(=O)Cc1ccc(NC(=O)NC23CC4CC(CC(C4)C2)C3)cc1)C(=O)N[C@@H](Cc1c[nH]c2ccccc12)C(=O)O | 66 (≈ 113 µM) | –
42 | O=C(Nc1ccc(C(=O)O)cc1)N[C@H]1CC[C@@H](Oc2ccc(F)cc2)CC1 | 4.65 (≈ 12.5 µM) | –
43 | CC(C)Oc1cc(F)c(CO[C@H]2CC[C@@H](NC(=O)NC34CC5CC(CC(C5)C3)C4)CC2)c(F)c1 | 6.7 (≈ 14.1 µM) | –
44 | O=C(Nc1cccc(OCCCCN2CCOCC2)c1)NC12CC3CC(CC(C3)C1)C2 | 21 (≈ 49.1 µM) | –
45 | COc1ccccc1NC(=O)NC12CC3CC(CC(C3)C1)C2 | 30 (≈ 99.9 µM) | –
46 | O=C(Nc1ccc(OC(=O)c2ccccc2)cc1)NC12CC3CC(CC(C3)C1)C2 | 39 (≈ 99.9 µM) | –
47 | O=C(Nc1cccc(C(=O)OCc2ccccc2)c1)NC12CC3CC(CC(C3)C1)C2 | 0.3 (≈ 0.742 µM) | –
48 | CCCCOC(=O)CCCCCCCCCCCNC(=O)NC12CC3CC(CC(C3)C1)C2 | 5.61 (≈ 12.5 µM) | –
49 | O=C(Nc1ccccc1OCCCCN1CCOCC1)NC12CC3CC(CC(C3)C1)C2 | 21 (≈ 49.1 µM) | –
50 | O=C(NC12CC3CC(CC(C3)C1)C2)N[C@H]1CC[C@@H](OCc2c(F)cccc2F)CC1 | 42 (≈ 100 µM) | –
51 | O=C(Nc1cccc(Oc2ccc(F)cc2)c1)NC12CC3CC(CC(C3)C1)C2 | 2.5 (≈ 6.57 µM) | –
52 | O=C(Nc1cccc(OC(=O)c2ccccc2)c1)NC12CC3CC(CC(C3)C1)C2 | 2.4 (≈ 6.15 µM) | –
53 | O=C(Nc1ccccc1)NC12CC3CC(CC(C3)C1)C2 | 14 (≈ 51.8 µM) | –
54 | O=C(O)CCCc1ccc(NC(=O)NC23CC4CC(CC(C4)C2)C3)cc1 | 36 (≈ 101 µM) | –

Row | Structure (SMILES) | MIC [1] [mg/L] | IC50 [2] [nM]
55 | O=C(Nc1cccc(C(=O)NCCN2CCOCC2)c1)NC12CC3CC(CC(C3)C1)C2 | > 30 | –
56 | CC(C)Oc1cc(F)c(CO[C@H]2CC[C@H](NC(=O)NC34CC5CC(CC(C5)C3)C4)CC2)c(F)c1 | 11.9 (≈ 25 µM) | –
57 | O=C(Nc1ccc(Oc2ccc(F)cc2)cc1)NC12CC3CC(CC(C3)C1)C2 | 0.6 (≈ 1.58 µM) | –
58 | O=C(NC12CC3CC(CC(C3)C1)C2)N[C@H]1CC[C@H](Oc2cc(F)cc(F)c2)CC1 | > 41 | –
59 | O=C(NC12CC3CC(CC(C3)C1)C2)N[C@H]1CC[C@@H](Oc2cc(F)cc(F)c2)CC1 | 10 (≈ 24.7 µM) | –
60 | COC(=O)c1ccc(NC(=O)NC23CC4CC(CC(C4)C2)C3)cc1 | 2 (≈ 6.09 µM) | –
61 | CN1CCN(CCCCOc2cccc(NC(=O)NC34CC5CC(CC(C5)C3)C4)c2)CC1 | 44 (≈ 99.9 µM) | –
62 | O=C(NC12CC3CC(CC(C3)C1)C2)N[C@H]1CC[C@H](Oc2ccc(Br)cc2)CC1 | > 89 | –
63 | O=C(NCCCCOc1ccc(F)cc1)NC12CC3CC(CC(C3)C1)C2 | 2.25 (≈ 6.24 µM) | –
64 | O=C(Nc1ccccc1OCCCN1CCOCC1)NC12CC3CC(CC(C3)C1)C2 | 21 (≈ 50.8 µM) | –
65 | O=C(Nc1ccc(-n2ccnc2)cc1)NC12CC3CC(CC(C3)C1)C2 | > 44 | –
66 | O=C(Nc1cccc(OCCCN2CCOCC2)c1)NC12CC3CC(CC(C3)C1)C2 | 32 (≈ 77.4 µM) | –
67 | CCOC(=O)C(C)Oc1ccc(NC(=O)NC23CC4CC(CC(C4)C2)C3)cc1 (centres undefined) | 19 (≈ 49.2 µM) | –
68 | CC(=O)Oc1ccc(NC(=O)NC23CC4CC(CC(C4)C2)C3)cc1 | 66 (≈ 201 µM) | –
69 | CCCCCCCOCCNC(=O)NC12CC3CC(CC(C3)C1)C2 | 2.1 (≈ 6.24 µM) | –
70 | COc1ccc(O[C@H]2CC[C@H](NC(=O)NC34CC5CC(CC(C5)C3)C4)CC2)cc1 | > 80 | –
71 | COc1ccc(NC(=O)NC23CC4CC(CC(C4)C2)C3)cc1O | 32 (≈ 101 µM) | –
72 | COC(=O)c1cccc(NC(=O)NC23CC4CC(CC(C4)C2)C3)c1 | 1.2 (≈ 3.65 µM) | –
73 | O=C(Nc1ccc(OCCCCN2CCOCC2)cc1)NC12CC3CC(CC(C3)C1)C2 | 21 (≈ 49.1 µM) | –
74 | O=C(Nc1ccc(O)cc1)NC12CC3CC(CC(C3)C1)C2 | 57 (≈ 199 µM) | –
75 | CO[C@H]1CC[C@H](NC(=O)NC23CC4CC(CC(C4)C2)C3)CC1 | > 61 | –
76 | CCOCCOCCOc1ccc(NC(=O)NC23CC4CC(CC(C4)C2)C3)cc1 | 10 (≈ 24.8 µM) | –
77 | O=C(NC12CC3CC(CC(C3)C1)C2)N[C@H]1CC[C@@H](Oc2ccc(F)cc2)CC1 | > 20 | –
78 | O=C(Nc1cccc(C(=O)N2CCC(N3CCOCC3)CC2)c1)NC12CC3CC(CC(C3)C1)C2 | > 93 | –
79 | CCOCCOCCOCCCCCNC(=O)NC12CC3CC(CC(C3)C1)C2 | > 79 | –
